Key:
A3AR = test: RT-PCR detection of A3AR on human neutrophils; type: cell-based; settings: incubated for 15 minutes at 37° C.
Procedure: Tissue sections (5 μm thick) on slides that, stained by H&E were observed by a pathologist. The neoplastic area and the normal area were detected and each one marked separately. The neoplastic tissue and the normal tissue were collected to different microcentrifuge tubes. The samples were treated with proteinase K at a final concentration of 0.1 mg/ml and incubated at 37° C. for 1 hour to allow for […]. Cells lysate were heated to 95° C. for 15 minutes in order to inactivate DNase and proteinase K. Following centrifugation at 14,000 RPM for 5 minutes, 17 μl of the supernatant was transferred to separate tube and 4 μl of RT mixture. 5 mM dNTPs, 2.5 μM random hexamer, 5 U RNasin, 100 U SuperScript One Step RT-PCR with Platinum Taq (Invitrogene) were added.
The RT reaction was performed at 45° C. for 45 minutes. […]
10×10^6 neutrophil cells isolated from 20 ml of human blood were incubated for 15 minutes with […] of CF101 at 37° C. […] RNA level was quantified using spectrophotometer and […] from each sample were subjected to RT-PCR using SuperScript One Step RT-PCR with Platinum Taq (Invitrogene), as described above in section E., by using the set No II as primers for amplification of 361 bp fragment. RT-PCR products were detected by electrophoresis and the size was verified by comparing with known RNA. […]

[1] = tested on: A3AR, A2AR, PI3K, PKB/Akt, IKKα/β, NF-κB, TNF-α, GSK-3β, caspase-3; test: Western blot of A3AR and downstream signaling proteins in DLN and synovial tissue of AIA rats; type: in vivo
Procedure: AIA in Rats: Female Lewis rats, aged 8-12 weeks, obtained from Harlan Laboratories (Jerusalem, Israel), were injected subcutaneously (s.c.) at the tail base with 100 μl of suspension composed of incomplete Freund's adjuvant (IFA) with 10 mg/ml heat killed Mycobacterium tuberculosis, (Mt) H37Ra, (Difco, Detroit, USA). To assess the clinical disease activity score, the animals were inspected every second day for clinical arthritis. The scoring system ranged from 0-4 of each limb: 0-no arthritis; 1-redness or swelling of one toe/finger joint; 2-redness and swelling of more than one toe/finger joints; 3-the ankle and tarsal-metatarsal joints involvement; 4-entire paw redness or swelling. The arthritic score was calculated by adding the four individual legs' score to a maximum of 16. For histological scoring, Animals were sacrificed, the legs were removed up to the knee level, fixed in 10% formaldehyde, decalcified, dehydrated, paraffin-embedded, cut into 4 μm sections and stained by Hematoxylin-Eosin. The assessment of all pathologic findings were performed blind using semi-quantitative grading scales of 0 to 4 for the following parameters: a) extent of inflammatory cells' infiltration to the joint tissues; b) synovial lining cell hyperplasia; c) pannus formation; and d) joint cartilage layers destruction. A fifth parameter, bone damage and erosion, was graded 0-5: 0-normal; 1-minimal loss of cortical bone at a few sites; 2-mild loss of cortical trabecular bone; 3-moderate loss of bone at many sites; 4-marked loss of bone at many sites; 5-marked loss of bone at many sites with fragmenting and full thickness penetration of inflammatory process or pannus into the cortical bone The mean of all the histological parameters scores were designated “Histology Score”. TNF-α was measured in synovia, DLN and spleen tissues derived from control and CF101 treated rats. To detect the level of expression of TNF-α, WB analysis was performed. Spleen and DLN mononuclear cells and synovial tissue were rinsed with ice-cold PBS and transferred to ice-cold lysis buffer (TNN buffer, 50 mM Tris buffer pH=7.5, 150 mM NaCl, NP 40 0.5% for 20 minutes). Cell debris was removed by centrifugation for 10 minutes, at 7500 g. The supernatant was utilized for WB analysis. Protein concentrations were determined using the Bio-Rad protein assay dye reagent. Equal amounts of the sample (50 μg) were separated by SDS-PAGE, using 12% polyacrylamide gels. The resolved proteins were then electro-blotted onto nitrocellulose membranes (Schleicher & Schuell, Keene, NH, USA). Membranes were blocked with 1% bovine serum albumin and incubated with polyclonal goat anti-rat TNF-α antibodies (dilution 1:1000) (Santa Cruz Biotechnology Inc., CA, USA) for 24 hours at 4° C. Blots were then washed and incubated with rabbit anti-goat polyclonal antibodies for 1 hour at room temperature. Bands were recorded using BCIP/NBT color development kit (Promega, Madison, Wis., USA). Densitometry of protein expression was normalized against β-actin and expressed as % of control.
Adjuvant induced arthritis (AIA) was induced in rats as described above. Rats were treated orally twice daily with either (i) vehicle (these rats serving as control), (ii) 10 μg/kg IB-MECA or with (ii) the specific A3AR […] MRS 1220 followed 30 minutes later by IB-MECA. The […] were sacrificed on day 28 for histological scoring and measurement of signaling proteins and TNF-α.

CNC(=O)[C@H]1O[C@@H](n2cnc3c(NCc4cccc(I)c4)ncnc32)[C@H](O)[C@@H]1O [IB-MECA, 1-deoxy-1-[6[[(3-iodophenyl)methyl]amino]-9H-purine-9-yl]-N-methyl-β-D-ribofura-nuronaminde]
expression of A3AR (RT-PCR) (A3AR): increase
GSK-3β level ([1]; DLN): up-regulation
PI3K level ([1]; DLN): down-regulation
caspase-3 level ([1]; DLN): up-regulation
IKKα/β level ([1]; DLN and synovial tissue): down-regulation
NF-κB level ([1]; DLN and synovial tissue): down-regulation
TNF-α level ([1]; DLN and synovial tissue): down-regulation
level of the A2 adenosine receptor (A2AR) ([1]; DLN, Western blot): no effect
level of the A3AR ([1]; DLN, Western blot): down-regulation
PKB/Akt level ([1]; DLN, protein expression and activity): down-regulation

Source: US20040229246A1, “Diagnostic markers for therapeutic treatment” (Can-Fite Biopharam Ltd., priority 2002, published 2004)
